# Test system: KM-mice given cyclophosphamide (bone marrow suppression)
# Assay: Pharmacodynamic experiment: cyclophosphamide-induced bone marrow suppression, peripheral blood counts
# Assay type: in vivo
# [1] = cyclophosphamide 120 mg/kg i.p. day 1, 2.5 mg/kg for 6 days, blood on day 7, mean ± s
compound,measurement,setting,value
"CC1CC[C@]2(C(=O)O)CC[C@]3(C)C(=CCC4[C@@]5(C)CCC(O)C(C)(C)C5CC[C@]43C)C2[C@]1(C)O (stereo partly drawn) [Sanguisorbigenin, 3β,19β-dihydroxyurs-12-en-28-oic acid]",numbers of NEUT and HGB in peripheral blood compared with model group,"2.5 mg/kg, P<0.05",did not show significant difference
same,"numbers of WBC, RBC, and PLT in peripheral blood compared with model group","2.5 mg/kg, P<0.05",did not show significant difference
same,HGB in peripheral blood,[1],45.47 ± 8.39 ^ g/L
same,NEUT in peripheral blood,[1],2.56 ± 0.13 ×10^9
same,PLT in peripheral blood,[1],231.16 ± 15.27 ×10^9
same,RBC in peripheral blood,[1],3.15 ± 0.19 ×10^12
same,WBC in peripheral blood,[1],2.79 ± 0.26 ×10^9
